Reference: patent US11903990B2, “Compositions and methods for treating and removing seborrheic keratoses” (priority 2017, dated 2024)

Tested on: seborrheic keratoses (SKs)
Assay: Formulary and performance observations on ingredients added to the SK treatment compositions
Assay type: in vivo, human
Details: for performance on addition to the BWE composition: added antioxidant, with BWE; for improvement of the treatment of seborrheic keratosis: dietary antioxidant
Source text: A number of formulary and performance observations were made in the various aforementioned pilot and case studies as well as additional variants thereof not reported here. […] Additionally, the addition of keratolytic agents and emollients appeared to help keep the composition from drying and improved the penetration of the composition into the SK.

## O=C(O)/C=C/c1ccc(O)c(O)c1 [caffeic acid]
  performance on addition to the BWE composition: no visible improvement
  improvement of the treatment of seborrheic keratosis: not found to improve

## CC(C)=CCC/C(C)=C/C=C/C(C)=C/C=C/C(C)=C/C=C/C=C(C)/C=C/C=C(C)/C=C/C=C(\C)CCC=C(C)C [lycopene]
  performance on addition to the BWE composition: no visible improvement
  improvement of the treatment of seborrheic keratosis: not found to improve

## CC(=O)N[C@@H](CS)C(=O)O [N-acetyl cysteine]
  performance on addition to the BWE composition: no visible improvement
  improvement of the treatment of seborrheic keratosis: not found to improve

## Oc1ccc(C=Cc2cc(O)cc(O)c2)cc1 [resveratrol]
  performance on addition to the BWE composition: no visible improvement
  improvement of the treatment of seborrheic keratosis: not found to improve
